# Patent US11440923B2, “Substituted macrocyclic indole derivatives” (Bayer Aktiengesellschaft, priority 2017, dated 2022)
# Structures can show the parent of a compound that is named as a salt. Where two headings read alike, the source gives them in different places.
# Assays:
# Assay type in all cases: cell-based
# SUDHL5 cells [1] = assay: Induction of caspase-3/7 activity in SUDHL5 cells (Assay 4)
# Experimental: (§1) Induction of Caspase-3/7 Activity Upon Treatment of Cells with Selected Compounds
# (§2) The BH3-domain of MCL-1 sequesters pro-apoptotic proteins, thereby inhibiting apoptosis. In contrast, MCL-1 inhibitors are expected to antagonize this effect leading to an increase in apoptosis, which can be determined by measuring the activity of caspase-3/7.
# (§3) The activity of caspase-3/7 was determined in DLBCL (Diffuse large B-cell lymphoma) cell lines (SUDHL5 and SUDHL10) upon treatment with different compounds, using the Caspase-Glo® 3/7 reagent from Promega (G8092).
# (§4) As a control, medium without cells was also added to the plate. Cells were incubated in a humidified incubator at 37° C. overnight.
# (§5) Rim wells were excluded. The cells were incubated for 3 h hours in a humidified incubator at 37° C. After this incubation, 30 μL of Caspase-Glo® 3/7 reagent (Promega G8092) was added to each well using the Multidrop Combi Reagent Dispenser, followed by 1 h incubation at 37° C. Finally, luminescence was read at 0.1 ms, with a gain of 3000 using the PHERAstar FS microplate reader (BMG Labtech).
# (§6) For the evaluation of the results, the background measured with “medium-only” was subtracted from all other values. Then, the values were normalized to DMSO-only treated cells (every value was divided by the mean of the DMSO control).
# SUDHL10 cells [2] = assay: Induction of caspase-3/7 activity in SUDHL10 cells (Assay 4)
# Experimental: as §1, §2, §3, §4, §5, §6
# SUDHL5 cells [3] = assay: Induction of cytotoxicity in SUDHL5 cells (Assay 6); conditions: 5 h, CellTiter-Glo, read-out: Cytotox SUDHL5 IC50 (median)
# Experimental: (§7) Assay 6 Induction of Cytotoxicity Upon Treatment of Cells with Selected Compounds
# (§8) In principle, compounds that induce apoptosis will concomitantly induce cell cytotoxicity. Therefore, cytotoxicity assays were run in parallel in SUDHL5 and SUDHL10 cells.
# (§9) As a control, medium without cells was also added to the plate. Cells were incubated in a humidified incubator at 37° C. overnight. […] Rim wells were excluded. The cells were incubated for 5 h hours in a humidified incubator at 37° C. After this incubation, 30 μL of CellTiter-Glo® Luminescent Cell Viability reagent (Promega, G7573) was added to each well using the Multidrop Combi Reagent Dispenser, followed by 15 min incubation on a shaker at room temperature. Finally, luminescence was read at 0.1 ms, with a gain of 3000 using the PHERAstar FS microplate reader (BMG Labtech).
# SUDHL10 cells [4] = assay: Induction of cytotoxicity in SUDHL10 cells (Assay 6); conditions: 5 h, CellTiter-Glo; read-out: Cytotox SUDHL10 IC50 (median)
# Experimental: as §7, §8, §9
# SUDHL5 cells [5] = assay: Antiproliferation assay SUDHL5 (Assay 7)
# Experimental: (§10) Assessment of the Anti-Proliferative Effect of Compounds in Different Cell Lines
# (§11) The impact of compounds on the proliferation of different cell lines was assessed using the CellTiter-Glo® Luminescent Cell Viability reagent from Promega (G7573).
# (§12) In parallel, cells were plated in a reference (day 0) plate for time zero determination. Cells were incubated in a humidified incubator at 37° C. overnight.
# (§13) Rim wells were excluded. The cells were incubated for 72 h hours in a humidified incubator at 37° C. The day 0 plate was measured by adding 30 μL/well of CTG solution (CellTiter-Glo® Luminescent Cell Viability reagent, Promega G7573) to time zero wells in the reference plate followed by a 10 minutes incubation and luminescence reading at 0.1 ms. using the PHERAstar FS microplate reader (BMG Labtech).
# (§14) After 72 h incubation, the treated plates were measured in the same way as the day 0 plate mentioned above. The Bella DRC Master Sheet was used to calculate IC50s, with CI=day 0 values and C0=DMSO control values.
# AMO-1 cells = assay: Antiproliferation assay AMO-1 (Assay 7)
# Experimental: as §10, §11, §12, §13, §14
# HMC-1-8 cells = assay: Antiproliferation assay HMC-1-8 (Assay 7)
# Experimental: as §10, §11, §12, §13, §14
# [6] = caspase-3/7 induction, 3 h; read-out: Caspase SUDHL5 EC50 (median)
# [7] = caspase-3/7 induction, 3 h; read-out: Caspase SUDHL10 EC50 (median)
# [8] = 72 h, CellTiter-Glo; read-out: Antiproli SUDHL5 IC50 (median)
# [9] = 72 h, CellTiter-Glo; read-out: Antiproli AMO-1 IC50 median
# [10] = 72 h, CellTiter-Glo; read-out: Antiproli HMC-1-8 IC50 median
Compound,EC50 (SUDHL5 cells [1]; [6]),EC50 (SUDHL10 cells [2]; [7]),IC50 (SUDHL5 cells [3]),IC50 (SUDHL10 cells [4]),IC50 (SUDHL5 cells [5]; [8]),IC50 (AMO-1 cells; [9]),IC50 (HMC-1-8 cells; [10]),further results
"CCc1c2c(nn1C)C(CCN(C)C)OCCCCn1c(C(=O)O)c(CCCOc3cccc4cc(F)ccc34)c3ccc(Cl)c-2c31 (single isomer, unassigned) [Example 85, 4-chloro-15-[2-(dimethylamino)ethyl]-3-ethyl-7-{3-[(6-fluoronaphthalen-1-yl)oxy]propyl}-2-methyl-2,10,11,12,13,15-hexahydropyrazolo[4′,3′:9,10][1,6]oxazacycloundecino[8,7,6-hi]indole-8-carboxylic Acid]",950 nM,1600 nM,870 nM,2000 nM,910 nM,5170 nM,> 33000 nM,–
"CCc1c2c(nn1C)C(CCC(C)(C)O)OCCCCn1c(C(=O)O)c(CCCOc3cccc4cc(F)ccc34)c3ccc(Cl)c-2c31 (single isomer, unassigned; enantiomer 2) [Example 76, (−)-4-chloro-3-ethyl-7-{3-[(6-fluoronaphthalen-1-yl)oxy]propyl}-15-(3-hydroxy-3-methylbutyl)-2-methyl-2,10,11,12,13,15-hexahydropyrazolo[4′,3′:9,10][1,6]oxazacycloundecino[8,7,6-hi]indole-8-carboxylic Acid—N-ethylethanamine Salt (Enantiomer 2)]",3300 nM,5800 nM,3600 nM,5200 nM,4600 nM,3870 nM,13000 nM,–
"CCc1c2c(nn1C)C(CCN1CCN(C)CC1)OCCCCn1c(C(=O)O)c(CCCOc3cccc4cc(F)ccc34)c3ccc(Cl)c-2c31 (single isomer, unassigned; stereoisomer 4) [Example 73, (−)-4-chloro-3-ethyl-7-{3-[(6-fluoronaphthalen-1-yl)oxy]propyl}-2-methyl-15-[2-(4-methylpiperazin-1-yl)ethyl]-2,10,11,12,13,15-hexahydropyrazolo[4′,3′:9,10][1,6]oxazacycloundecino[8,7,6-hi]indole-8-carboxylic Acid (Stereoisomer 4)]",–,–,–,–,–,–,–,"EC50 (SUDHL5 cells [1]; Homo sapiens, SU-DHL-5, 3 h, caspase-3/7 induction, 3 h; read-out: Caspase SUDHL5 EC50 (median)): 5200 nM; EC50 (SUDHL10 cells [2]; Homo sapiens, SU-DHL10, 3 h, caspase-3/7 induction, 3 h; read-out: Caspase SUDHL10 EC50 (median)): 8800 nM; IC50 (SUDHL5 cells [3]; Homo sapiens, SU-DHL-5, 5 h): 7700 nM; IC50 (SUDHL5 cells [5]; Homo sapiens, SU-DHL-5, 72 h, 72 h, CellTiter-Glo; read-out: Antiproli SUDHL5 IC50 (median)): 6100 nM; IC50 (AMO-1 cells; Homo sapiens, AMO1, 72 h, 72 h, CellTiter-Glo; read-out: Antiproli AMO-1 IC50 median): 3840 nM; IC50 (HMC-1-8 cells; 72 h, CellTiter-Glo, read-out: Antiproli HMC-1-8 IC50 median): > 33000 nM"
"CCc1c2c(nn1C)C(CCN1CCOCC1)N(C)CCCCn1c(C(=O)O)c(CCCOc3cccc4cc(F)ccc34)c3ccc(Cl)c-2c31 (centres unmarked) [Example 98, 4-chloro-3-ethyl-7-{3-[(6-fluoronaphthalen-1-yl)oxy]propyl}-2,14-dimethyl-15-[2-(morpholin-4-yl)ethyl]-10,11,12,13,14,15-hexahydro-2H-pyrazolo[3′,4′:8,9][1,6]diazacycloundecino[10,11,1-hi]indole-8-carboxylic Acid—N-ethylethanamine Salt]",1000 nM,1500 nM,1400 nM,–,1200 nM,860 nM,11500 nM,–
"CCc1c2c(nn1C)C(CCN1CCN(C)CC1)OCCCCn1c(C(=O)O)c(CCCOc3cccc4cc(F)ccc34)c3ccc(Cl)c-2c31 (single isomer, unassigned; stereoisomer 2) [Example 70, (+)-4-chloro-3-ethyl-7-{3-[(6-fluoronaphthalen-1-yl)oxy]propyl}-2-methyl-15-[2-(4-methylpiperazin-1-yl)ethyl]-2,10,11,12,13,15-hexahydropyrazolo[4′,3′:9,10][1,6]oxazacycloundecino[8,7,6-hi]indole-8-carboxylic Acid—N-ethylethanamine Salt (Stereoisomer 2)]",–,–,–,20000 nM,–,–,–,"EC50 (SUDHL5 cells [1]; read-out: Caspase SUDHL5 EC50 (median); caspase-3/7 induction, 3 h): 13000 nM; EC50 (SUDHL10 cells [2]; read-out: Caspase SUDHL10 EC50 (median); caspase-3/7 induction, 3 h): 14000 nM; IC50 (SUDHL5 cells [5]; read-out: Antiproli SUDHL5 IC50 (median); 72 h, CellTiter-Glo): 5000 nM; IC50 (AMO-1 cells; read-out: Antiproli AMO-1 IC50 median; 72 h, CellTiter-Glo): 12500 nM; IC50 (HMC-1-8 cells; read-out: Antiproli HMC-1-8 IC50 median; 72 h, CellTiter-Glo): 16800 nM"
"CCc1c2c(nn1C)C(CCN1CCOCC1)OCC(F)(F)CCn1c(C(=O)O)c(CCCOc3cccc4cc(F)ccc34)c3ccc(Cl)c-2c31 (single isomer, unassigned; (+)) [Example 87, (+)-4-chloro-3-ethyl-12,12-difluoro-7-{3-[(6-fluoronaphthalen-1-yl)oxy]propyl}-2-methyl-15-[2-(morpholin-4-yl)ethyl]-2,10,11,12,13,15-hexahydropyrazolo[4′,3′:9,10][1,6]oxazacycloundecino[8,7,6-hi]indole-8-carboxylic Acid]",58 nM,84 nM,61 nM,–,68 nM,63.9 nM,1500 nM,–
"CCc1c2c(nn1C)C(CCN1CCOCC1)N(C)CCCCn1c(C(=O)O)c(CCCOc3cccc4cc(F)ccc34)c3ccc(Cl)c-2c31 (single isomer, unassigned) [Example 95, 4-chloro-3-ethyl-7-{3-[(6-fluoronaphthalen-1-yl)oxy]propyl}-2,14-dimethyl-15-[2-(morpholin-4-yl)ethyl]-10,11,12,13,14,15-hexahydro-2H-pyrazolo[3′,4′:8,9][1,6]diazacycloundecino[10,11,1-hi]indole-8-carboxylic Acid]",1500 nM,3500 nM,2200 nM,–,2300 nM,4300 nM,8220 nM,–
"CCc1c2c(nn1C)C(CCN1CCOCC1)OCC(F)(F)CCn1c(C(=O)O)c(CCCOc3cccc4cc(F)ccc34)c3ccc(Cl)c-2c31 (centres unmarked) [Example 86, 4-chloro-3-ethyl-12,12-difluoro-7-{3-[(6-fluoronaphthalen-1-yl)oxy]propyl}-2-methyl-15-[2-(morpholin-4-yl)ethyl]-2,10,11,12,13,15-hexahydropyrazolo[4′,3′:9,10][1,6]oxazacycloundecino[8,7,6-hi]indole-8-carboxylic Acid]",100 nM,140 nM,150 nM,–,200 nM,193 nM,1590 nM,–
"CCc1c2c(nn1C)C(CCN1CCOCC1)OCC(F)(F)CCn1c(C(=O)O)c(CCCOc3cccc4cc(F)ccc34)c3ccc(Cl)c-2c31 (single isomer, unassigned; (-)) [Example 91, (−)-4-chloro-3-ethyl-12,12-difluoro-7-{3-[(6-fluoronaphthalen-1-yl)oxy]propyl}-2-methyl-15-[2-(morpholin-4-yl)ethyl]-2,10,11,12,13,15-hexahydropyrazolo[4′,3′:9,10][1,6]oxazacycloundecino[8,7,6-hi]indole-8-carboxylic Acid]",660 nM,890 nM,790 nM,–,1000 nM,729 nM,6100 nM,–
